The target of the assay is T1, RORc ligand binding domain (Homo sapiens, UniProt P51449).
T1 construct: host or cells: E. coli
T1 sequence (P51449 269-508 limits assumed): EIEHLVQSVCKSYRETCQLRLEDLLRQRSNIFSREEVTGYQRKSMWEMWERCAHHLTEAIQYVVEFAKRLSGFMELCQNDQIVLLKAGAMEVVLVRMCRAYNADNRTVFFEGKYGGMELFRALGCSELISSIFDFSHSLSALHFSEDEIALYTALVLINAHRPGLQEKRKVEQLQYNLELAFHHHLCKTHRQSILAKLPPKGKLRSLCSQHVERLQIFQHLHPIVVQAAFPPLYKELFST
Nature of the assay: In vitro RORc ligand binding assay (25-[3H]hydroxycholesterol displacement, filter binding). The settings on record: 6 nM 25-[3H]hydroxycholesterol, 0.6 ug/mL RORc receptor, 3 h at 25° C. In a few lines: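 Filter-binding displacement of 6 nM 25-[3H]hydroxycholesterol from RORc receptor (0.6 ug/mL) in 50 mM HEPES pH 7.4, 150 mM NaCl, 5 mM MgCl2, 1 mM DTT, 0.01% BSA, 5% DMSO; 3 h at 25° C. NSB defined with 1 uM 25-hydroxycholesterol; scintillation counting gave Kiapp, IC50 or % inhibition (screening at 1 and 10 uM).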
Turning to `CCN(C[C@@]12CC[C@@H](c3cc(-c4c(F)cccc4F)nnc31)C2(C)C)C(N)=O` [Example 159, 1-(((5R,8S)-3-(2,6-difluorophenyl)-9,9-dimethyl-5,6,7,8-tetrahydro-5,8-methanocinnolin-8-yl)methyl)-1-ethylurea], the IC50 – broadly, the concentration at which inhibition is half-maximal – worked out at 26 nM.

Consider `CCN(C[C@@]12CC[C@@H](c3cc(-c4c(F)cccc4F)nnc31)C2(C)C)C(=O)CC#N` [Example 160, 2-cyano-N-(((5R,8S)-3-(2,6-difluorophenyl)-9,9-dimethyl-5,6,7,8-tetrahydro-5,8-methanocinnolin-8-yl)methyl)-N-ethylacetamide], for which the IC50 was 27 nM.

Regarding `CC1(C)[C@H]2CC[C@]1(c1cnccn1)c1nnc(-c3c(F)cccc3F)cc12` [Example 161], the IC50 worked out at 90 nM. This IC50 lies about 3.3-fold higher than the previous one.

`CCN(C[C@@]12CC[C@@H](c3cc(-c4c(F)cccc4F)nnc31)C2(C)C)C(=O)CO` [Example 162, N-(((5R,8S)-3-(2,6-difluorophenyl)-9,9-dimethyl-5,6,7,8-tetrahydro-5,8-methanocinnolin-8-yl)methyl)-N-ethyl-2-hydroxyacetamide] came in with an IC50 of 8 nM.

On to `CCN(C[C@@]12CC[C@@H](c3cc(-c4c(F)cccc4F)nnc31)C2(C)C)c1ccccn1` [Example 163, N-(((5R,8S)-3-(2,6-difluorophenyl)-9,9-dimethyl-5,6,7,8-tetrahydro-5,8-methanocinnolin-8-yl)methyl)-N-ethylpyridin-2-amine], for which the IC50 is 6 nM.

In turn, `CCN(C[C@@]12CC[C@@H](c3cc(-c4c(F)cccc4F)nnc31)C2(C)C)c1ncccn1` [Example 164, N-(((5R,8S)-3-(2,6-difluorophenyl)-9,9-dimethyl-5,6,7,8-tetrahydro-5,8-methanocinnolin-8-yl)methyl)-N-ethylpyrimidin-2-amine] showed an IC50 of 4 nM.

Take `Cn1c([C@@]23CC[C@@H](c4cc(-c5c(F)cccc5F)nnc42)C3(C)C)cccc1=O` [Example 165, 6-((5R,8S)-3-(2,6-difluorophenyl)-9,9-dimethyl-5,6,7,8-tetrahydro-5,8-methanocinnolin-8-yl)-1-methylpyridin-2(1H)-one]: the IC50 came out at 8 nM.

Regarding `Cc1nnc(N(CC(F)F)C[C@@]23CC[C@@H](c4cc(-c5c(F)cccc5F)nnc42)C3(C)C)o1` [Example 166, N-(2,2-difluoroethyl)-N-(((5R,8S)-3-(2,6-difluorophenyl)-9,9-dimethyl-5,6,7,8-tetrahydro-5,8-methanocinnolin-8-yl)methyl)-5-methyl-1,3,4-oxadiazol-2-amine], the IC50 stood at 9 nM.

For `CC(C)(C)OC(=O)NCCC1CN(C(=O)[C@]23CC[C@H](c4cc(-c5c(F)cccc5F)nnc42)C3(C)C)C1` [Example 168, tert-butyl (2-(1-((5S,8S)-3-(2,6-difluorophenyl)-9,9-dimethyl-5,6,7,8-tetrahydro-5,8-methanocinnoline-8-carbonyl)azetidin-3-yl)ethyl)carbamate], the concentration for half-maximal inhibition (IC50) came out at 2970 nM. Against the preceding compound, the IC50 is about 330-fold higher.

The compound `CC1(C)[C@H]2CC[C@]1(C(=O)Nc1ccccc1C#N)c1nnc(-c3ccccc3F)cc12` [Example 171, (5R,8R)-N-(2-cyanophenyl)-3-(2-fluorophenyl)-9,9-dimethyl-5,6,7,8-tetrahydro-5,8-methanocinnoline-8-carboxamide] returned an IC50 of 3380 nM. The IC50 values of the last two compounds are within 1.5-fold of each other.

With `CC1(C)[C@H]2CC[C@]1(C(=O)N1CC(F)(F)C1)c1nnc(-c3ccccc3F)cc12` [Example 172, (3,3-difluoroazetidin-1-yl)((5R,8R)-3-(2-fluorophenyl)-9,9-dimethyl-5,6,7,8-tetrahydro-5,8-methanocinnolin-8-yl)methanone], the IC50 is 1410 nM. Compared with the last compound, the IC50 is about 2.4-fold lower.

For the compound `COC1CCN(C(=O)[C@@]23CC[C@@H](c4cc(-c5ccccc5F)nnc42)C3(C)C)CC1` [Example 173, ((5R,8R)-3-(2-fluorophenyl)-9,9-dimethyl-5,6,7,8-tetrahydro-5,8-methanocinnolin-8-yl)(4-methoxypiperidin-1-yl)methanone], the IC50 came out at 2470 nM.

As to `CC(C)(C#N)NC(=O)[C@@]12CC[C@@H](c3cc(-c4ccccc4F)nnc31)C2(C)C` [Example 174, (5R,8R)-N-(2-cyanopropan-2-yl)-3-(2-fluorophenyl)-9,9-dimethyl-5,6,7,8-tetrahydro-5,8-methanocinnoline-8-carboxamide], the IC50 stood at 3080 nM. This IC50 and that of the compound before are within 1.5-fold of each other.

For the compound `CC1(C)[C@H]2CC[C@]1(C(=O)NC1CCCC1)c1nnc(-c3ccccc3F)cc12` [Example 175, (5R,8R)-N-cyclopentyl-3-(2-fluorophenyl)-9,9-dimethyl-5,6,7,8-tetrahydro-5,8-methanocinnoline-8-carboxamide], the IC50 was found to be 1160 nM.

In turn, `CC1(C)[C@H]2CC[C@]1(C(=O)NCCO)c1nnc(-c3ccccc3F)cc12` [Example 176, (5R,8R)-3-(2-fluorophenyl)-N-(2-hydroxyethyl)-9,9-dimethyl-5,6,7,8-tetrahydro-5,8-methanocinnoline-8-carboxamide] came in with an IC50 of 2670 nM.

`CC1(C)[C@H]2CC[C@]1(C(=O)NC1CCC1)c1nnc(-c3ccccc3F)cc12` [Example 177, (5R,8R)-N-cyclobutyl-3-(2-fluorophenyl)-9,9-dimethyl-5,6,7,8-tetrahydro-5,8-methanocinnoline-8-carboxamide] came in with an IC50 of 1500 nM.

On to `CNC(=O)[C@@]12CC[C@@H](c3cc(-c4ccccc4F)nnc31)C2(C)C` [Example 178, (5R,8R)-3-(2-fluorophenyl)-N,9,9-trimethyl-5,6,7,8-tetrahydro-5,8-methanocinnoline-8-carboxamide], for which the IC50 stood at 2050 nM.

`Cc1c[nH]nc1C1CN(C(=O)[C@@]23CC[C@@H](c4cc(-c5ccccc5F)nnc42)C3(C)C)C1` [Example 179, ((5R,8R)-3-(2-fluorophenyl)-9,9-dimethyl-5,6,7,8-tetrahydro-5,8-methanocinnolin-8-yl)(3-(4-methyl-1H-pyrazol-3-yl)azetidin-1-yl)methanone] showed an IC50 of 2810 nM.

The compound `CNC(=O)C1CN(C(=O)[C@@]23CC[C@@H](c4cc(-c5ccccc5F)nnc42)C3(C)C)CCO1` (stereo partly drawn) [Example 180, 4-((5R,8R)-3-(2-fluorophenyl)-9,9-dimethyl-5,6,7,8-tetrahydro-5,8-methanocinnoline-8-carbonyl)-N-methylmorpholine-2-carboxamide] gave an IC50 of 3810 nM.

Take `Cc1ccnc(C2CN(C(=O)[C@@]34CC[C@@H](c5cc(-c6ccccc6F)nnc53)C4(C)C)C2)n1` [Example 181, ((5R,8R)-3-(2-fluorophenyl)-9,9-dimethyl-5,6,7,8-tetrahydro-5,8-methanocinnolin-8-yl)(3-(4-methylpyrimidin-2-yl)azetidin-1-yl)methanone]: the IC50 is 2750 nM.

`CC1(C)[C@H]2CC[C@]1(C(=O)N1CC(c3cc[nH]n3)C1)c1nnc(-c3ccccc3F)cc12` [Example 182, (3-(1H-pyrazol-3-yl)azetidin-1-yl)((5R,8R)-3-(2-fluorophenyl)-9,9-dimethyl-5,6,7,8-tetrahydro-5,8-methanocinnolin-8-yl)methanone] came in with an IC50 of 3000 nM.

In turn, `CC(NC(=O)[C@@]12CC[C@@H](c3cc(-c4ccccc4F)nnc31)C2(C)C)c1ccccc1` (stereo partly drawn) [Example 183, (5R,8R)-3-(2-fluorophenyl)-9,9-dimethyl-N-(1-phenylethyl)-5,6,7,8-tetrahydro-5,8-methanocinnoline-8-carboxamide] displayed an IC50 of 1000 nM. Compared with the last compound, the IC50 is about 3-fold lower.

On to `CC1(C)[C@H]2CC[C@]1(N1CCNC1=O)c1nnc(-c3c(F)cccc3F)cc12` [Example 184, 1-((5R,8R)-3-(2,6-difluorophenyl)-9,9-dimethyl-5,6,7,8-tetrahydro-5,8-methanocinnolin-8-yl)imidazolidin-2-one], for which the IC50 worked out at 171 nM.

Take `CC1(C)[C@H]2CC[C@]1(c1ncn[nH]1)c1nnc(-c3c(F)cccc3F)cc12` [Example 185, (5R,8R)-3-(2,6-difluorophenyl)-9,9-dimethyl-8-(1H-1,2,4-triazol-5-yl)-5,6,7,8-tetrahydro-5,8-methanocinnoline]: the IC50 came to 2200 nM. This IC50 lies about 13-fold higher than the previous one.

Consider `Cn1ccc([C@@]23CC[C@@H](c4cc(-c5c(F)cccc5F)nnc42)C3(C)C)n1` [Example 186], for which the IC50 worked out at 152 nM. Compared with the last compound, the IC50 is about 14-fold lower.

The compound `CC1(C)[C@H]2CC[C@]1(C(=O)NC1COC1)c1nnc(-c3c(F)cccc3F)cc12` [Example 187, (5R,8R)-3-(2,6-difluorophenyl)-9,9-dimethyl-N-(oxetan-3-yl)-5,6,7,8-tetrahydro-5,8-methanocinnoline-8-carboxamide] displayed a 50% inhibitory concentration (IC50) of 2400 nM.

For `COC1CN(C(=O)[C@@]23CC[C@@H](c4cc(-c5c(F)cccc5F)nnc42)C3(C)C)C1` [Example 188, ((5R,8R)-3-(2,6-difluorophenyl)-9,9-dimethyl-5,6,7,8-tetrahydro-5,8-methanocinnolin-8-yl)(3-methoxyazetidin-1-yl)methanone], the IC50 amounted to 2460 nM.

`CC(C)OC1CN(C(=O)[C@@]23CC[C@@H](c4cc(-c5c(F)cccc5F)nnc42)C3(C)C)C1` [Example 190, ((5R,8R)-3-(2,6-difluorophenyl)-9,9-dimethyl-5,6,7,8-tetrahydro-5,8-methanocinnolin-8-yl)(3-isopropoxyazetidin-1-yl)methanone] had an IC50 of 1840 nM.

In turn, `Cc1cc([C@@]23CC[C@@H](c4cc(-c5c(F)cccc5F)nnc42)C3(C)C)[nH]n1` [Example 191, (5R,8S)-3-(2,6-difluorophenyl)-9,9-dimethyl-8-(3-methyl-1H-pyrazol-5-yl)-5,6,7,8-tetrahydro-5,8-methanocinnoline] yielded an IC50 of 123 nM. Against the preceding compound, the IC50 is about 15-fold lower.
